Data as given in ChEMBL document CHEMBL1201862, “PubChem BioAssay data set” (2004).
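Step 1: Grow cells in 96-well plates. Step 2: Expose to compound for 48 hours at 5 concentrations. Step 3: Interpolate endpoints linearly; if unreached, use highest concentration. GI50 = concentration required for 50% inhibition of growth.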 Active and inactive are the calls of the source. No stated cut-off is given here; in the data, active = GI50 up to about 1.1 µM and inactive = higher.

Assays:
Assay in all cases: NCI tumour cell line growth inhibition, 48 h
UO-31 = system: UO-31
SK-MEL-28 = system: SK-MEL-28
NCI-H23 = system: NCI-H23
SK-OV-3 = system: SK-OV-3
786-0 = system: 786-0
SF-295 = system: SF-295
UACC-62 = system: UACC-62
SF-268 = system: SF-268
RXF 631 = system: RXF 631
NCI-H522 = system: NCI-H522
HT-29 = system: HT-29
KM12 = system: KM12
OVCAR-3 = system: OVCAR-3
TK-10 = system: TK-10
RPMI-8226 = system: RPMI-8226
HOP-92 = system: HOP-92
HCC 2998 = system: HCC 2998
PC-3 = system: PC-3
NCI/ADR-RES = system: NCI/ADR-RES
Hs-578T = system: Hs-578T

Measured: GI50

CC(=O)Nc1ccc(C2CC(c3ccc([N+](=O)[O-])cc3)=Nc3ccccc3S2)cc1 (centres undefined)
inactive: UO-31 13.8 µM | SK-MEL-28 18.7 µM | NCI-H23 > 10 µM | SK-OV-3 40.6 µM | 786-0 17.4 µM | SF-295 18.6 µM | UACC-62 15.2 µM | SF-268 24 µM | RXF 631 22.9 µM | NCI-H522 > 10 µM | HT-29 15.4 µM | KM12 13.9 µM | OVCAR-3 23.2 µM | TK-10 23.9 µM

CC(=O)c1cccc(NC(=O)C(=O)C(C2OC(=O)c3ccccc32)[N+](=O)[O-])c1 (centres undefined)
inactive: RPMI-8226 > 100 µM | HOP-92 > 100 µM | UO-31 60.1 µM | SK-MEL-28 > 100 µM | NCI-H23 > 100 µM | SK-OV-3 > 100 µM | 786-0 > 100 µM | SF-295 > 100 µM | UACC-62 > 100 µM | SF-268 > 100 µM | HCC 2998 > 100 µM | RXF 631 > 100 µM | HT-29 > 100 µM | KM12 > 100 µM | OVCAR-3 > 100 µM | TK-10 > 100 µM

Cc1ccc2[nH]c(=O)c(C(C#N)c3ccccc3)nc2c1 (centres undefined)
inactive: RPMI-8226 15.6 µM | HOP-92 32.7 µM | UO-31 27.9 µM | SK-MEL-28 60.4 µM | NCI-H23 60.8 µM | SK-OV-3 50.7 µM | 786-0 41.8 µM | SF-295 30.4 µM | UACC-62 26.5 µM | SF-268 32.6 µM | HCC 2998 28.2 µM | RXF 631 44.1 µM | NCI-H522 32.7 µM | HT-29 32.8 µM | KM12 32 µM | OVCAR-3 23.6 µM | TK-10 > 100 µM

Cc1ccccc1N1C(=O)/C(=C/c2ccc(N(CCC#N)CCC#N)cc2)N=C1c1cc([N+](=O)[O-])ccc1Cl
inactive: RPMI-8226 21 µM | UO-31 > 100 µM | SK-MEL-28 > 100 µM | NCI-H23 > 100 µM | SK-OV-3 > 100 µM | 786-0 84.5 µM | SF-295 31 µM | UACC-62 22.5 µM | SF-268 > 100 µM | HCC 2998 > 100 µM | RXF 631 > 100 µM | NCI-H522 > 100 µM | HT-29 > 100 µM | KM12 > 100 µM | OVCAR-3 59.3 µM

N#Cc1c(N)oc2cc3c(C#N)c(N)oc3cc12
inactive: RPMI-8226 > 100 µM | HOP-92 > 100 µM | UO-31 > 100 µM | SK-MEL-28 > 100 µM | NCI-H23 > 100 µM | SK-OV-3 > 100 µM | 786-0 > 100 µM | SF-295 > 100 µM | UACC-62 > 100 µM | SF-268 > 100 µM | HCC 2998 > 100 µM | RXF 631 > 100 µM | NCI-H522 > 100 µM | HT-29 > 100 µM | KM12 > 100 µM | OVCAR-3 > 100 µM | TK-10 > 100 µM

S=C(Nc1ccccc1)N(/N=C/C=C/c1ccccc1)c1nnc(-c2ccccc2)c(-c2ccccc2)n1
inactive: RPMI-8226 26.1 µM | HOP-92 18.7 µM | UO-31 24.7 µM | SK-MEL-28 54.6 µM | NCI-H23 19.6 µM | SK-OV-3 > 100 µM | 786-0 > 100 µM | SF-295 42.9 µM | UACC-62 52.4 µM | SF-268 30.5 µM | HCC 2998 76.7 µM | RXF 631 80.7 µM | NCI-H522 27.2 µM | HT-29 99.1 µM | KM12 82.4 µM | OVCAR-3 38.6 µM | TK-10 95.3 µM

COC(=O)C1=C(O)c2cc(OC)c(OC)c(OC)c2C(c2ccc3c(c2)OCO3)[C@@H]1C(=O)OC (some centres undefined)
inactive: RPMI-8226 6.62 µM | HOP-92 > 100 µM | UO-31 6.08 µM | SK-MEL-28 7.31 µM | NCI-H23 7.03 µM | SK-OV-3 3.44 µM | 786-0 3.65 µM | SF-295 2.01 µM | UACC-62 1.53 µM | SF-268 4.28 µM | HCC 2998 4.97 µM | RXF 631 5.82 µM | HT-29 2.84 µM | KM12 2.94 µM | OVCAR-3 1.99 µM | TK-10 7.18 µM

O=c1c2cc(-c3ccccc3)sc2nc2sc(-c3ccccc3)nn12
inactive: RPMI-8226 > 100 µM | HOP-92 > 100 µM | UO-31 > 100 µM | NCI-H23 > 100 µM | SK-OV-3 > 100 µM | 786-0 > 100 µM | SF-295 > 100 µM | UACC-62 > 100 µM | SF-268 > 100 µM | RXF 631 > 100 µM | NCI-H522 > 100 µM | HT-29 > 100 µM | KM12 > 100 µM | OVCAR-3 > 100 µM | TK-10 > 100 µM

Cc1[nH]c2ccccc2c1C1Cc2ccccc2N1C(=O)/C=C/C(=O)O (centres undefined)
inactive: UO-31 > 100 µM | NCI-H23 > 100 µM | SK-OV-3 > 100 µM | 786-0 > 100 µM | SF-295 > 100 µM | UACC-62 > 100 µM | SF-268 > 100 µM | HCC 2998 > 100 µM | RXF 631 18.4 µM | NCI-H522 > 100 µM | HT-29 > 100 µM | KM12 > 100 µM | OVCAR-3 > 100 µM | TK-10 > 100 µM

O=[N+]([O-])c1cc(Cl)ccc1OCc1ccccc1
inactive: RPMI-8226 67 µM | HOP-92 34 µM | SK-MEL-28 > 100 µM | NCI-H23 32.1 µM | SK-OV-3 > 100 µM | 786-0 59 µM | SF-295 56.6 µM | UACC-62 > 100 µM | SF-268 > 100 µM | HCC 2998 > 100 µM | RXF 631 > 100 µM | HT-29 29.6 µM | KM12 > 100 µM | OVCAR-3 33 µM | TK-10 > 100 µM

[N-]=[N+]=C1CNC(=O)NC1=O
inactive: RPMI-8226 28.8 µM | HOP-92 > 100 µM | UO-31 > 100 µM | SK-MEL-28 > 100 µM | NCI-H23 > 100 µM | SK-OV-3 > 100 µM | 786-0 60.4 µM | SF-295 > 100 µM | UACC-62 > 100 µM | SF-268 > 100 µM | PC-3 > 100 µM | NCI/ADR-RES > 100 µM | HCC 2998 > 100 µM | NCI-H522 > 100 µM | HT-29 > 100 µM | Hs-578T > 100 µM | KM12 > 100 µM | OVCAR-3 > 100 µM | TK-10 > 100 µM

O=C(O)[C@H](CCC[C@H]1C(=O)O[C@H](c2ccccc2)[C@H](c2ccccc2)N1C(=O)OCc1ccccc1)N[C@@H](c1ccccc1)[C@H](O)c1ccccc1
inactive: RPMI-8226 22.4 µM | HOP-92 22.3 µM | UO-31 > 100 µM | SK-MEL-28 19.8 µM | NCI-H23 28.4 µM | SK-OV-3 61.8 µM | 786-0 32.5 µM | SF-295 28.2 µM | UACC-62 22.1 µM | SF-268 33.7 µM | PC-3 37.1 µM | NCI/ADR-RES > 100 µM | HCC 2998 21 µM | NCI-H522 15.5 µM | HT-29 28.6 µM | Hs-578T 25.4 µM | KM12 19.7 µM | OVCAR-3 23.7 µM | TK-10 40.7 µM
